In test [1] the test system is Stellaria media, Lolium multiflorum, Amaranthus retroflexus, Sinapis alba, Avena sativa and Setaria viridis. Kind of test: Pre-emergence herbicidal action (greenhouse pot test). Type of test: in vivo. Particulars: application rate of 1 kg or less of active substance per hectare; scored visually after 3 to 4 weeks in comparison to untreated controls. From the text:
Seeds or rhizome pieces of mono- and dicotyledonous weed plants were placed in sandy loam in plastic pots and covered with soil. The inventive compounds, which have been formulated in the form of wettable powders or emulsion concentrates, were then applied to the surface of the covering soil as an aqueous suspension or emulsion in different dosages with an application rate of from 600 to 800 l/ha of water (converted).

Test [2] concerns Sinapis alba, Echinochloa crus-galli, Lolium multiflorum, Stellaria media, Cyperus iria, Amaranthus retroflexus, Setaria viridis, Avena sativa, Lamium …. Kind of test: Post-emergence herbicidal action (greenhouse pot test). Particulars: application rate of 1 kg and less of active substance per hectare; treated at three-leaf stage; scored visually after approx. 3 to 4 weeks in comparison to untreated controls. Type of test: in vivo. The method, then: Seeds or rhizome pieces of mono- and dicotyledonous weeds were placed in sandy loam in plastic pots, covered with soil and grown in a greenhouse under good growth conditions. Three weeks after the sowing, the test plants were treated at the three-leaf stage. The inventive compounds formulated as spray powders or as emulsion concentrates were sprayed onto the green plant parts in various dosages with an application rate of from 600 to 800 l/ha of water (converted). After the test plants had been left to stand in the greenhouse under optimal growth conditions for approx. 3 to 4 weeks, the action of the preparations was scored visually in comparison to untreated controls. The inventive compositions also had good post-emergence herbicidal activity against a wide spectrum of economically important gramineous and broadleaf weeds.

Structures are written as SMILES.

For `CC(=O)Nc1nc(N[C@@H]2CCCc3ccccc32)nc([C@@H](C)F)n1` [Compound 2.31], the “herbicidal action against harmful plants in the pre-emergence method” value (“herbicidal action … in the pre-emergence method” for short) in test [1] is “very good herbicidal action”. Further, the “herbicidal action against harmful plants in the post-emergence method” value (from here on “herbicidal action … in the post-emergence method”) in test [2] is on record as “very good herbicidal action”.

With `C[C@@H](F)c1nc(NC(=O)C(F)(F)F)nc(N[C@@H]2CCCc3ccccc32)n1` [Compound 2.32], in test [1], the “herbicidal action … in the pre-emergence method” value is given as “very good herbicidal action”. Moreover, the “herbicidal action … in the post-emergence method” value in test [2] was “very good herbicidal action”.

Regarding `CC(=O)Nc1nc(C)nc(N[C@H]2c3cc(C)ccc3C[C@@H]2C)n1` [Compound 2.33], the “herbicidal action … in the pre-emergence method” value in test [1] is recorded as “very good herbicidal action”. For the same compound, in test [2], the “herbicidal action … in the post-emergence method” value is “very good herbicidal action”.

Take `C[C@@H](F)c1nc(NCCC#N)nc(N[C@@H]2CCCc3ccccc32)n1` [Compound 2.38, 3-({4-[(1R)-1-Fluoroethyl]-6-[(1R)-1,2,3,4-tetrahydronaphth-1-ylamino]-1,3,5-triazin-2-yl}amino)propanenitrile]: the “herbicidal action … in the pre-emergence method” value in test [1] was “very good herbicidal action”. The “herbicidal action … in the post-emergence method” value in test [2] is given as “very good herbicidal action”.

With `C[C@@H](F)c1nc(N[C@@H]2CCCc3ccccc32)nc(N(CCC#N)CCC#N)n1` [Compound 2.39, 3,3′-({4-[(1R)-1-Fluoroethyl]-6-[(1R)-1,2,3,4-tetrahydronaphth-1-ylamino]-1,3,5-triazin-2-yl}imino)dipropanenitrile], the “herbicidal action … in the pre-emergence method” value in test [1] is given as “very good herbicidal action”. The “herbicidal action … in the post-emergence method” value in test [2] is recorded as “very good herbicidal action”.

On to `Cc1ccc2c(c1)[C@H](Nc1ncnc(NC(=O)NC(C)(C)C)n1)[C@@H](C)C2` [Compound 2.43, N-(Tert-butyl)-N′-(4-{[(1R,2S)-2,6-dimethyl-2,3-dihydro-1H-inden-1-yl]amino}-1,3,5triazin-2-yl)urea], for which the “herbicidal action … in the pre-emergence method” value in test [1] is recorded as “very good herbicidal action”. The “herbicidal action … in the post-emergence method” value in test [2] is reported as “very good herbicidal action”.

Take `Cc1ccc(NC(=O)Nc2nc(N[C@@H]3CCCc4ccccc43)nc([C@@H](C)F)n2)cc1` [Compound 2.59]: the “herbicidal action … in the pre-emergence method” value in test [1] is reported as “very good herbicidal action”. In addition, the “herbicidal action … in the post-emergence method” value in test [2] is “very good herbicidal action”.

`Cc1ccc(NC(=O)Nc2ncnc(NC3c4cc(C)ccc4CC3C)n2)cc1` (centres unmarked) [Compound 2.60]: the “herbicidal action … in the pre-emergence method” value in test [1] is reported as “very good herbicidal action”. Moreover, the “herbicidal action … in the post-emergence method” value in test [2] is listed as “very good herbicidal action”.

Consider `Cc1ccc2c(c1)C(Nc1nc(NC(=O)C3CC3)nc(C(C)F)n1)C(C)C2` (centres unmarked) [Compound 2.67], for which the “herbicidal action … in the pre-emergence method” value in test [1] is reported as “very good herbicidal action”. Further, the “herbicidal action … in the post-emergence method” value in test [2] is on record as “very good herbicidal action”.

Take `C[C@@H](F)c1nc(NC(=O)C2CC2)nc(N[C@@H]2CCCc3ccccc32)n1` [Compound 2.68]: the “herbicidal action … in the pre-emergence method” value in test [1] is on record as “very good herbicidal action”. The “herbicidal action … in the post-emergence method” value in test [2] was “very good herbicidal action”.

In the case of `Cc1ccc2c(c1)C(Nc1ncnc(NC(=O)C3CC3)n1)C(C)C2` (centres unmarked) [Compound 2.75], the “herbicidal action … in the pre-emergence method” value in test [1] is “very good herbicidal action”. Moreover, in test [2], the “herbicidal action … in the post-emergence method” value is “very good herbicidal action”.

On to `Cc1ccc2c(c1)C(Nc1nc(NC(=S)NC(C)(C)C)nc(C(C)F)n1)C(C)C2` (centres unmarked) [Compound 2.76], for which the “herbicidal action … in the pre-emergence method” value in test [1] is on record as “very good herbicidal action”. Also, in test [2], the “herbicidal action … in the post-emergence method” value is reported as “very good herbicidal action”.

Regarding `Cc1ccc2c(c1)C(Nc1nc(NC(=O)NC(C)C)nc(C(C)F)n1)C(C)C2` (centres unmarked) [Compound 2.78], the “herbicidal action … in the pre-emergence method” value in test [1] is reported as “very good herbicidal action”. In addition, in test [2], the “herbicidal action … in the post-emergence method” value is “very good herbicidal action”.

With `CCCCNC(=O)Nc1nc(NC2c3cc(C)ccc3CC2C)nc(C(C)F)n1` (centres unmarked) [Compound 2.87], in test [1], the “herbicidal action … in the pre-emergence method” value was “very good herbicidal action”. In test [2], the “herbicidal action … in the post-emergence method” value is given as “very good herbicidal action”.

On to `CCCCCCNC(=O)Nc1nc(NC2c3cc(C)ccc3CC2C)nc(C(C)F)n1` (centres unmarked) [Compound 2.88], for which, in test [1], the “herbicidal action … in the pre-emergence method” value is recorded as “very good herbicidal action”. In test [2], the “herbicidal action … in the post-emergence method” value is listed as “very good herbicidal action”.

With `Cc1ccc2c(c1)C(Nc1nc(NC(=O)NC3CCCC3)nc(C(C)F)n1)C(C)C2` (centres unmarked) [Compound 2.101], the “herbicidal action … in the pre-emergence method” value in test [1] is “very good herbicidal action”. Further, the “herbicidal action … in the post-emergence method” value in test [2] is recorded as “very good herbicidal action”.

For the compound `Cc1ccc2c(c1)C(Nc1nc(NC(=O)NCc3ccccc3)nc(C(C)F)n1)C(C)C2` (centres unmarked) [Compound 2.103], the “herbicidal action … in the pre-emergence method” value in test [1] is “very good herbicidal action”. In addition, in test [2], the “herbicidal action … in the post-emergence method” value is on record as “very good herbicidal action”.

Regarding `COCCNC(=O)Nc1nc(NC2c3cc(C)ccc3CC2C)nc(C(C)F)n1` (centres unmarked) [Compound 2.104], the “herbicidal action … in the pre-emergence method” value in test [1] is listed as “very good herbicidal action”. Besides, the “herbicidal action … in the post-emergence method” value in test [2] is reported as “very good herbicidal action”.

In the case of `COC(C)(C)CNC(=O)Nc1nc(NC2c3cc(C)ccc3CC2C)nc(C(C)F)n1` (centres unmarked) [Compound 2.105], in test [1], the “herbicidal action … in the pre-emergence method” value was “very good herbicidal action”. Moreover, the “herbicidal action … in the post-emergence method” value in test [2] was “very good herbicidal action”.

As to `CCOC(CNC(=O)Nc1nc(NC2c3cc(C)ccc3CC2C)nc(C(C)F)n1)OCC` (centres unmarked) [Compound 2.106], the “herbicidal action … in the pre-emergence method” value in test [1] is reported as “very good herbicidal action”. Besides, the “herbicidal action … in the post-emergence method” value in test [2] was “very good herbicidal action”.

For the compound `CCOC(=O)CNC(=O)Nc1nc(NC2c3cc(C)ccc3CC2C)nc(C(C)F)n1` (centres unmarked) [Compound 2.111], in test [1], the “herbicidal action … in the pre-emergence method” value was “very good herbicidal action”. Besides, the “herbicidal action … in the post-emergence method” value in test [2] is “very good herbicidal action”.

For the compound `COC(C)(C)CNC(=S)Nc1nc(NC2c3cc(C)ccc3CC2C)nc(C(C)F)n1` (centres unmarked) [Compound 2.114], the “herbicidal action … in the pre-emergence method” value in test [1] was “very good herbicidal action”. Also, the “herbicidal action … in the post-emergence method” value in test [2] is reported as “very good herbicidal action”.

`Cc1ccc2c(c1)C(Nc1nc(NC(=O)Nc3ccccc3)nc(C(C)F)n1)C(C)C2` (centres unmarked) [Compound 2.115]: the “herbicidal action … in the pre-emergence method” value in test [1] is on record as “very good herbicidal action”. Also, the “herbicidal action … in the post-emergence method” value in test [2] is given as “very good herbicidal action”.

As to `Cc1ccc(NC(=O)Nc2nc(NC3c4cc(C)ccc4CC3C)nc(C(C)F)n2)cc1` (centres unmarked) [Compound 2.116], in test [1], the “herbicidal action … in the pre-emergence method” value was “very good herbicidal action”. Further, the “herbicidal action … in the post-emergence method” value in test [2] is “very good herbicidal action”.

On to `Cc1ccc2c(c1)C(Nc1nc(NC(=O)Nc3ccc(F)cc3)nc(C(C)F)n1)C(C)C2` (centres unmarked) [Compound 2.117], for which the “herbicidal action … in the pre-emergence method” value in test [1] was “very good herbicidal action”. Also, the “herbicidal action … in the post-emergence method” value in test [2] is reported as “very good herbicidal action”.

`COc1ccc(NC(=O)Nc2nc(NC3c4cc(C)ccc4CC3C)nc(C(C)F)n2)cc1` (centres unmarked) [Compound 2.122]: the “herbicidal action … in the pre-emergence method” value in test [1] is “very good herbicidal action”. Further, the “herbicidal action … in the post-emergence method” value in test [2] was “very good herbicidal action”.

Consider `Cc1ccc2c(c1)C(Nc1nc(NC(=S)Nc3ccccc3)nc(C(C)F)n1)C(C)C2` (centres unmarked) [Compound 2.127], for which the “herbicidal action … in the pre-emergence method” value in test [1] is listed as “very good herbicidal action”. For the same compound, the “herbicidal action … in the post-emergence method” value in test [2] is “very good herbicidal action”.

For `Cc1ccc(NC(=S)Nc2nc(NC3c4cc(C)ccc4CC3C)nc(C(C)F)n2)cc1` (centres unmarked) [Compound 2.128], in test [1], the “herbicidal action … in the pre-emergence method” value is listed as “very good herbicidal action”. Moreover, the “herbicidal action … in the post-emergence method” value in test [2] is recorded as “very good herbicidal action”.

As to `Cc1ccc2c(c1)C(Nc1nc(NC(=S)Nc3ccc(F)cc3)nc(C(C)F)n1)C(C)C2` (centres unmarked) [Compound 2.129], the “herbicidal action … in the pre-emergence method” value in test [1] is on record as “very good herbicidal action”. Moreover, the “herbicidal action … in the post-emergence method” value in test [2] is “very good herbicidal action”.

As for `COc1ccc(NC(=S)Nc2nc(NC3c4cc(C)ccc4CC3C)nc(C(C)F)n2)cc1` (centres unmarked) [Compound 2.130], in test [1], the “herbicidal action … in the pre-emergence method” value was “very good herbicidal action”. In addition, in test [2], the “herbicidal action … in the post-emergence method” value is given as “very good herbicidal action”.

In the case of `Cc1ccc2c(c1)C(Nc1nc(NC(=S)NCc3ccccc3)nc(C(C)F)n1)C(C)C2` (centres unmarked) [Compound 2.131], the “herbicidal action … in the pre-emergence method” value in test [1] is recorded as “very good herbicidal action”. Besides, the “herbicidal action … in the post-emergence method” value in test [2] is “very good herbicidal action”.

The record behind these values is patent US20070293399A1, “SUBSTITUTED DIAMINO-1,3,5-TRIAZINES, PROCESSES FOR THEIR PREPARATION AND THEIR USE AS HERBICIDES AND CROP GROWTH REGULATORS” (Bayer CropScience AG, priority 2006, published 2007).
